# Reference: patent publication US10174380B2, “Methods for predicting multiple myeloma treatment response” (INSERM (INSTITUT NATIONAL DE LA SANTE ET DE LA RECHERCHE …, priority 2012, dated 2019)
# Values joined by “and” are separate entries in the source; they are usually repeats but may differ in a detail not shown here. Equal entries are not always repeated. Where two headings read alike, the source gives them in different places.
# Experiments:
# Format in all cases: cell-based, human
# [1] = test system: 5 HMCLs with low HA Score; assay: Growth assay for myeloma cells (Cell Titer Glo, intracellular ATP), HMCLs with low HA Score; conditions: 4 days culture, read-out: median IC50
# Experimental: (§1) Data are mean values plus or minus standard deviation (SD) of 5 experiments determined on sextuplet culture wells.
# (§2) HMCLs were cultured for 4 days in 96-well flat-bottom microtiter plates in RPMI 1640 medium, 10% FCS, 2 ng/ml IL-6 culture medium (control), with graded Panobinostat (A), VPA […] or SAHA (C) concentrations. Data are mean values plus or minus standard deviation (SD) of 5 experiments determined on sextuplet culture wells.
# (§3) Cell growth was evaluated by quantifying intracellular ATP amount with a Cell Titer Glo Luminescent Assay (Promega, Madison, Wis.) with a Centro LB 960 luminometer (Berthold Technologies, Bad Wildbad, Germany).
# (§4) The inventors sought to determine whether HA Score could predict for the sensitivity of 10 HMCLs to HDAC inhibitor.
# (§5) The inventors sought to determine whether HA Score could predict for the sensitivity of myeloma cells to clinical grade HDAC inhibitors {Neri, 2012 #3317}.
# [2] = test system: 5 HMCLs with the highest HA Score; assay: Growth assay for myeloma cells (Cell Titer Glo, intracellular ATP), HMCLs with high HA Score; conditions: 4 days culture, read-out: median IC50
# Experimental: as §1, §2, §3, §4, §5
# [3] = test system: primary MMCs of patients with low HA Score; assay: Mononuclear cell culture, CD138+ viable plasma cell count, patients with low HA Score; conditions: day 4; for Myeloma cell number/culture well: individual patients with low HA Score; for Myeloma cell number/culture well, Mean: mean of 5 patients with low HA Score
# Experimental: (§6) At day 4 of culture, the cell count and the viability were determined and the percentage of CD138^+ viable plasma cells was determined by flow cytometry. Black color represents patients with high HA Score (N=8) and white represents patients with low HA Score values (N=5).
# (§7) In each culture group, viability and cell counts were assayed and MMCs were stained with an anti-CD138-PE mAb (Immunotech, Marseille, France) as previously described (35).
# (§8) The characteristics of patients with MM included in this study are described in Table 3.
# [4] = test system: primary MMCs of patients with high HA Score; assay: Mononuclear cell culture, CD138+ viable plasma cell count, patients with high HA Score; conditions: day 4; for Myeloma cell number/culture well: individual patients with high HA Score; for Myeloma cell number/culture well, Mean: mean of 8 patients with high HA Score
# Experimental: as §6, §7, §8
# [5] = test system: Five HMCLs; assay: Cell viability of the five TSA treated HMCLs (summary statement); conditions: 0.33 μM TSA for 24 h
# Experimental: (§9) The human MM cell lines XG-5, XG-6, XG-7, XG-20 and LP1 were grown in RPMI 1640 supplemented with 10% fetal bovine serum and 2 ng/mL recombinant IL-6. […] Control cells were cultured in the same conditions without TSA.
# The prognostic information of HDACi regulated genes was gathered within an histone acetylation score (HA Score), which was the sum of the beta coefficients of the Cox model weighted by ±1 according to the patient MMC signal above or below the probe set maxstat value as described (34).
# [6] = test system: XG-20; assay: Cell viability by trypan blue exclusion; conditions: 0.33 μM TSA, 24 h (Day 1), mean ± SD, 3 experiments
# Experimental: as §9
# [7] = test system: XG-5; assay: Cell viability by trypan blue exclusion; conditions: 0.33 μM TSA, 24 h (Day 1), mean ± SD, 3 experiments
# Experimental: as §9
# [8] = test system: LP1; assay: Cell viability by trypan blue exclusion; conditions: 0.33 μM TSA, 24 h (Day 1), mean ± SD, 3 experiments
# Experimental: as §9
# [9] = test system: XG-7; assay: Cell viability by trypan blue exclusion; conditions: 0.33 μM TSA, 24 h (Day 1), mean ± SD, 3 experiments
# Experimental: as §9
# [10] = test system: XG-6; assay: Cell viability by trypan blue exclusion; conditions: 0.33 μM TSA, 24 h (Day 1), mean ± SD, 3 experiments
# Experimental: as §9
# [11] = Homo sapiens, 96 h, IL-6 2 ng/ml
smiles,measurement,setting,value
"Cc1[nH]c2ccccc2c1CCNCc1ccc(/C=C/C(=O)NO)cc1 [Panobinostat, panobinostat]",IC50,[1]; [11],3.16 nM
same,IC50,[2]; [11],1.16 nM
"CC(/C=C/C(=O)NO)=C\[C@@H](C)C(=O)c1ccc(N(C)C)cc1 [TSA, trichostatin A]",Myeloma cell number/culture well,[3]; 5.1 nM TSA,72200 and 60648 and 14750 and 306768 and 19100
same,"Myeloma cell number/culture well, Mean",[3]; 5.1 nM TSA,94693
same,Myeloma cell number/culture well,[3]; 10.3 nM TSA,64998 and 62172 and 18486 and 254478 and 19458
same,"Myeloma cell number/culture well, Mean",[3]; 10.3 nM TSA,83918
same,Myeloma cell number/culture well,[3]; 20.7 nM TSA,54912 and 41184 and 14328 and 243978 and 18168
same,"Myeloma cell number/culture well, Mean",[3]; 20.7 nM TSA,74514
same,Myeloma cell number/culture well,[3]; 41.3 nM TSA,33350 and 26100 and 12765 and 235040 and 18876
same,"Myeloma cell number/culture well, Mean",[3]; 41.3 nM TSA,65226
same,Myeloma cell number/culture well,[4]; 5.1 nM TSA,43320 and 115520 and 72200 and 83752 and 19950 and 37544 and 48249 and 78844
same,"Myeloma cell number/culture well, Mean",[4]; 5.1 nM TSA,62422
same,Myeloma cell number/culture well,[4]; 10.3 nM TSA,31086 and 45216 and 50868 and 25434 and 12170 and 33912 and 38249 and 41860
same,"Myeloma cell number/culture well, Mean",[4]; 10.3 nM TSA,34849
same,Myeloma cell number/culture well,[4]; 20.7 nM TSA,22880 and 20592 (2×) and 38896 and 7650 and 18304 and 29064 and 32752
same,"Myeloma cell number/culture well, Mean",[4]; 20.7 nM TSA,23841
same,Myeloma cell number/culture well,[4]; 41.3 nM TSA,7250 (2×) and 29000 and 18850 and 11600 and 1736 and 5238 and 29790
same,"Myeloma cell number/culture well, Mean",[4]; 41.3 nM TSA,13839
same,effect on myeloma cell viability,[5],did not affect myeloma cell viability
same,Cell viability (%),[6],100 ± 1%
same,Cell viability (%),[7],70 ± 3%
same,Cell viability (%),[8],100 ± 0%
same,Cell viability (%),[9],100 ± 0%
same,Cell viability (%),[10],100 ± 1%
same,IC50,[1]; IL-6 2 ng/ml,52.3 nM
same,IC50,[2]; IL-6 2 ng/ml,11 nM
"CCCC(CCC)C(=O)O [VPA, valproic acid]",IC50,"[1]; Homo sapiens, 96 h",430 nM
same,IC50,"[2]; Homo sapiens, 96 h",280 nM
